{"source": "patent US20240344014A1", "about": "“3D SHELL MICR[…] FOR EL[…] ORGANOIDS” (The Johns Hopkins University, priority 2023, published 2024)", "tested_on": "brain organoids", "assay": "3D shell MEA recording of brain organoid electrical activity with glutamate stimulation", "type": "cell-based, human", "conditions": "brain organoid in 3D shell MEA", "source_text": "A 9-week brain organoid was placed at the center of the shell electrodes during self-folding, which allowed the organoid to be enveloped within the leaflets with the PEDOT: PSS electrodes in intimate contact with the organoid (FIG. 10B). A glass cylinder was placed around the device to hold the cell media. Electrode outputs were fabricated for signal acquisition (FIG. 10A). The three PEDOT: PSS electrodes on the leaflets successfully recorded the field potential of the enveloped brain organoid (FIG. 10C, FIG. 11). […] The overlaid spike waveform indicates an average spike duration of ˜2 ms, with varied amplitude during the recording (FIG. 10E). We note that we can add more electrodes to the leaflets to improve the recording (FIGS. 12A-12F, FIGS. 13A-13D).\nWe further confirm that the signal recorded is from the brain organoids by examining the response to 20 μM glutamate neurotransmitter added to the culture media that served as a positive control for the spontaneous recording (23, 37). […]\nAfter preprocessing the raw signals, we detected spikes separate for each channel using a threshold-based method, where the threshold is automatically set to be 5σn. […] After spike locations were detected, we isolated them by windows of length 3.5 ms. […]", "data": [{"smiles": "N[C@@H](CCC(=O)O)C(=O)O", "note": "[glutamate]", "values": [{"measurement": "spike signal-to-noise ratio (SNR), increase of median (amplitude of firing spikes)", "setting": "20 μM glutamate added to the culture media, before vs after application", "value": 57.6, "unit": "%"}, {"measurement": "inter-spike-interval (ISI) of glutamate-induced signals", "setting": "20 μM glutamate, before vs after stimulation", "value": "longer"}]}]}
